Results reported in ChEMBL document CHEMBL1201862, “PubChem BioAssay data set” (2004).
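Each compound was tested at five concentrations against cells in 96-well plates for 48 hours. At the GI50, growth is halved.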 The source made the active and inactive calls. Rule as the data show it: active = GI50 up to about 1.1 µM and inactive = higher.

Key:
Assay in all cases: NCI anticancer screen, dose series, 48 h
OVCAR-4 = test system: OVCAR-4
SK-MEL-5 = test system: SK-MEL-5
CAKI-1 = test system: CAKI-1
786-0 = test system: 786-0
SN12C = test system: SN12C
KM-20L2 = test system: KM-20L2
RXF 393 = test system: RXF 393
A498 = test system: A498
UO-31 = test system: UO-31
LOX IMVI = test system: LOX IMVI
OVCAR-5 = test system: OVCAR-5
SK-MEL-28 = test system: SK-MEL-28
NCI-H522 = test system: NCI-H522
M19-MEL = test system: M19-MEL
HCT-15 = test system: HCT-15
MDA-MB-231 = test system: MDA-MB-231
HCC 2998 = test system: HCC 2998
TK-10 = test system: TK-10
HOP-92 = test system: HOP-92
U-251 = test system: U-251
MDA-N = test system: MDA-N
DLD-1 = test system: DLD-1
DU-145 = test system: DU-145
COLO 205 = test system: COLO 205
XF498 = test system: XF498
LXFL 529 = test system: LXFL 529
M14 = test system: M14
SK-MEL-2 = test system: SK-MEL-2
Malme-3M = test system: Malme-3M
ACHN = test system: ACHN
SR = test system: SR
SNB-75 = test system: SNB-75
HOP-62 = test system: HOP-62
SW-620 = test system: SW-620
NCI-H226 = test system: NCI-H226
NCI/ADR-RES = test system: NCI/ADR-RES
A549 = test system: A549
SF-295 = test system: SF-295
MOLT-4 = test system: MOLT-4
MCF7 = test system: MCF7
SF-539 = test system: SF-539
HOP-18 = test system: HOP-18
HL-60 = test system: HL-60
SK-OV-3 = test system: SK-OV-3
SNB-78 = test system: SNB-78
HCT-116 = test system: HCT-116
DMS-273 = test system: DMS-273
UACC-62 = test system: UACC-62
HT-29 = test system: HT-29
BT-549 = test system: BT-549
OVCAR-8 = test system: OVCAR-8
SF-268 = test system: SF-268
NCI-H460 = test system: NCI-H460
SNB-19 = test system: SNB-19
OVCAR-3 = test system: OVCAR-3
DMS-114 = test system: DMS-114
NCI-H23 = test system: NCI-H23
EKVX = test system: EKVX
IGROV-1 = test system: IGROV-1
RPMI-8226 = test system: RPMI-8226
MDA-MB-435 = test system: MDA-MB-435
KM12 = test system: KM12
RXF 631 = test system: RXF 631
UACC-257 = test system: UACC-257
CCRF-CEM = test system: CCRF-CEM
PC-3 = test system: PC-3
Hs-578T = test system: Hs-578T
K562 = test system: K562

With `CCCC(O)[C@@]1(CC)CC(C)C(O)(C2(C)C[C@H](C)[C@@H](C(CC)C(=O)C(C)[C@@H](O)[C@H](C)C3OC(O)(C(CC)C(=O)O)[C@@H](C)C(O)C3CC)O2)O1` (some centres not stated) the GI50 (OVCAR-4) was 0.594 µM (active), the GI50 (SK-MEL-5) was 0.219 µM (active) and the GI50 (CAKI-1) was 0.486 µM (active). The GI50 (786-0) was 0.414 µM (active), the GI50 (SN12C) was 0.12 µM (active) and the GI50 (KM-20L2) was 0.276 µM (active). The GI50 (RXF 393) was 0.0863 µM (active), the GI50 (A498) was 0.412 µM (active) and the GI50 (UO-31) was 1.01 µM (active). The GI50 (LOX IMVI) was 0.19 µM (active), the GI50 (OVCAR-5) was 1.51 µM (inactive) and the GI50 (SK-MEL-28) was 0.49 µM (active). The GI50 (NCI-H522) was 0.0211 µM (active), the GI50 (M19-MEL) was 0.643 µM (active) and the GI50 (HCT-15) was 1.16 µM. The GI50 (MDA-MB-231) was 0.492 µM (active), the GI50 (HCC 2998) was 0.0897 µM (active) and the GI50 (TK-10) was 0.527 µM (active). The GI50 (HOP-92) was 0.3 µM (active), the GI50 (U-251) was 0.184 µM (active) and the GI50 (MDA-N) was 0.414 µM (active). For the same molecule, the GI50 (DLD-1) was 0.841 µM (active), the GI50 (DU-145) was 0.0885 µM (active) and the GI50 (COLO 205) was 0.123 µM (active). The GI50 (XF498) was 1.19 µM (inactive), the GI50 (LXFL 529) was 0.594 µM (active) and the GI50 (M14) was 0.557 µM (active). For the same molecule, the GI50 (SK-MEL-2) was 0.531 µM (active), the GI50 (Malme-3M) was 0.0982 µM (active) and the GI50 (ACHN) was 0.521 µM (active). For the same molecule, the GI50 (SR) was < 0.01 µM (active), the GI50 (SNB-75) was 0.0611 µM (active) and the GI50 (HOP-62) was 0.369 µM (active). For the same molecule, the GI50 (SW-620) was 0.776 µM (active), the GI50 (NCI-H226) was 1.1 µM (active) and the GI50 (NCI/ADR-RES) was 0.0792 µM (active). The GI50 (A549) was 0.123 µM (active), the GI50 (SF-295) was 0.753 µM (active) and the GI50 (MOLT-4) was 0.449 µM (active). The GI50 (MCF7) was 0.461 µM (active), the GI50 (SF-539) was 0.056 µM (active) and the GI50 (HOP-18) was 8.59 µM (inactive). The GI50 (HL-60) was 0.0228 µM (active), the GI50 (SK-OV-3) was 2.15 µM (inactive) and the GI50 (SNB-78) was 2.76 µM (inactive). For the same molecule, the GI50 (HCT-116) was 0.187 µM (active), the GI50 (DMS-273) was 0.29 µM (active) and the GI50 (UACC-62) was 0.923 µM (active). The GI50 (HT-29) was 0.557 µM (active), the GI50 (BT-549) was 0.0512 µM (active) and the GI50 (OVCAR-8) was 0.444 µM (active). For the same molecule, the GI50 (SF-268) was 0.284 µM (active), the GI50 (NCI-H460) was 0.191 µM (active) and the GI50 (SNB-19) was 0.279 µM (active). The GI50 (OVCAR-3) was 0.0733 µM (active), the GI50 (DMS-114) was 0.0279 µM (active) and the GI50 (NCI-H23) was 0.129 µM (active). The GI50 (EKVX) was 0.395 µM (active), the GI50 (IGROV-1) was 1.24 µM (inactive) and the GI50 (RPMI-8226) was 0.0989 µM (active). The GI50 (MDA-MB-435) was 0.151 µM (active), the GI50 (KM12) was 0.451 µM (active) and the GI50 (RXF 631) was < 0.0333 µM (active). The GI50 (UACC-257) was 0.138 µM (active), the GI50 (CCRF-CEM) was 0.0324 µM (active) and the GI50 (PC-3) was 0.0723 µM (active). For the same molecule, the GI50 (Hs-578T) was 0.267 µM (active) and the GI50 (K562) was 0.0955 µM (active).

For `CC#N.O[C@@H]1CCCC[C@@H]1O.O[C@@H]1CCCC[C@@H]1O.[TeH2]`, the GI50 (OVCAR-4) was 31.8 µM (inactive), the GI50 (SK-MEL-5) was 40.6 µM (inactive) and the GI50 (CAKI-1) was > 100 µM (inactive). For the same molecule, the GI50 (786-0) was 34.1 µM (inactive), the GI50 (SN12C) was 24.2 µM (inactive) and the GI50 (KM-20L2) was 65.5 µM (inactive). For the same molecule, the GI50 (RXF 393) was 72.3 µM (inactive), the GI50 (A498) was 30.4 µM (inactive) and the GI50 (UO-31) was 57.1 µM (inactive). The GI50 (LOX IMVI) was 10.6 µM (inactive), the GI50 (OVCAR-5) was 16.3 µM (inactive) and the GI50 (SK-MEL-28) was 72.3 µM (inactive). The GI50 (NCI-H522) was 37.3 µM (inactive), the GI50 (M19-MEL) was 25.1 µM (inactive) and the GI50 (HCT-15) was 18.8 µM. The GI50 (HCC 2998) was > 100 µM (inactive), the GI50 (TK-10) was > 100 µM (inactive) and the GI50 (HOP-92) was 26.1 µM (inactive). The GI50 (U-251) was 12.9 µM (inactive), the GI50 (DLD-1) was 22.7 µM (inactive) and the GI50 (COLO 205) was 84.3 µM (inactive). For the same molecule, the GI50 (XF498) was > 100 µM (inactive), the GI50 (LXFL 529) was 63.7 µM (inactive) and the GI50 (M14) was > 100 µM (inactive). The GI50 (SK-MEL-2) was 74.3 µM (inactive), the GI50 (Malme-3M) was > 100 µM (inactive) and the GI50 (ACHN) was 33.2 µM (inactive). For the same molecule, the GI50 (SR) was 21.1 µM (inactive), the GI50 (SNB-75) was > 100 µM (inactive) and the GI50 (HOP-62) was 41.7 µM (inactive). The GI50 (SW-620) was 18.6 µM (inactive), the GI50 (NCI-H226) was 40.6 µM (inactive) and the GI50 (A549) was 45.8 µM (inactive). For the same molecule, the GI50 (SF-295) was 17.3 µM (inactive), the GI50 (MOLT-4) was 13.8 µM (inactive) and the GI50 (SF-539) was > 100 µM (inactive). The GI50 (HOP-18) was 27.5 µM (inactive), the GI50 (HL-60) was 15.4 µM (inactive) and the GI50 (SK-OV-3) was 77.8 µM (inactive). The GI50 (SNB-78) was > 100 µM (inactive), the GI50 (HCT-116) was 15.4 µM (inactive) and the GI50 (DMS-273) was 19.6 µM (inactive). For the same molecule, the GI50 (UACC-62) was > 100 µM (inactive), the GI50 (HT-29) was 33.4 µM (inactive) and the GI50 (OVCAR-8) was 21.8 µM (inactive). The GI50 (SF-268) was 69.2 µM (inactive), the GI50 (NCI-H460) was 3.72 µM (inactive) and the GI50 (SNB-19) was 33.1 µM (inactive). The GI50 (OVCAR-3) was 31.8 µM (inactive), the GI50 (DMS-114) was 24.4 µM (inactive) and the GI50 (NCI-H23) was 21.2 µM (inactive). For the same molecule, the GI50 (EKVX) was > 100 µM (inactive), the GI50 (IGROV-1) was 26.9 µM (inactive) and the GI50 (RPMI-8226) was 37.2 µM (inactive). The GI50 (KM12) was 50.8 µM (inactive), the GI50 (RXF 631) was 18.7 µM (inactive) and the GI50 (UACC-257) was 54.3 µM (inactive). The GI50 (CCRF-CEM) was 11.6 µM (inactive) and the GI50 (K562) was 18.7 µM (inactive).
